What was measured:
[1] = system: neurogenic peptidases (e.g., NAALADases); test: delivery of peptide directly into the brain, behavior; type: in vivo; conditions: effective amounts directly into the brain
[2] = system: male Syrian golden hamsters; test: golden hamster seed finding model of anxiety; type: in vivo, Mesocricetus auratus
Text: Clavulanic acid (CLAV) is structurally similar to the beta-lactam antibiotics. A most robust and simple bioassay for screening beta-lactams for CNS activity is the golden hamster seed finding model of anxiety. Briefly, hamsters are deprived of food overnight. The following day they are exposed to the additional stress of being taken from their home cage and placed in a novel environment for a few minutes. This manipulation stimulates the release of the stress hormone cortisol (FIG. 13). During their absence from the home cage, sunflower seeds are hidden under the bedding in one of the corners. When returned to the home cage, hamsters routinely scramble along the walls for 1-2 min before settling down, locating and eating the seeds. However, animals treated with the benzodiazepine anxiolytic chlordiazepoxide find seeds in less than 10 sec.
Male, Syrian golden hamsters (Mesocricetus auratus) (120-130 g) obtained from Harlan Sprague-Dawley Laboratories (Indianapolis, Ind.) were housed individually in Plexiglas cages (24 cm×24 cm×20 cm), maintained on a reverse light:dark cycle (14L: 10D; lights on at 19:00 hr) and provided food and water ad libitum. A range of concentrations of CLAV (saline vehicle, 0.1, 1.0, 10, 100 1,000 ng/kg) were tested in six groups of hamsters (4-8/group)(FIG. 1). All tests were conducted during the dark phase of the circadian cycle under dim red illumination. Prior to testing all animals were fasted for 20-24 hrs. Ninety min after intraperitoneal (IP) injection of drug, animals were taken from their home cage and placed into a holding cage for 2 min. During their absence, six sunflower seeds were buried under the bedding in one corner of their home cage. Animals were placed back into their home cage randomly facing any one of the empty corners and timed for their latency to find the seeds in a five min observation period. Latency times were analyzed with a one-way ANOVA followed by Scheffe's post hoc tests. Assumption of equal variances was tested (Hartley's F-max=2.1 p>0.05)
It was hypothesized that CLAV functioned as an anxiolytic in the seed finding assay by blocking NAALADase activity in the brain. If this notion were true then it would be predicted that drugs known to block NAALADase should also enhance seed finding. To this end, animals were treated with N-acetyl-beta-aspartyl-glutamic acid (beta-NAAG), a competitive inhibitor of NAALADase (Serval et al., 1992) and tested in the seed finding model of anxiety. The study was similar to that outlined in Section I with one notable exception. […] Beta-NAAG (FW 304) was given in a dose of 3 ng in a volume of 1 μl saline ICV. The average adult hamster brain weights ca. 1.2 g of which 22% is extracellular fluid. The estimated beta-NAAG concentration was 11 ng/ml or 36 nM.
Two groups of six animals each were fasted overnight as previously described and tested the following day. One group was treated with beta-NAAG and the other saline vehicle and one hr later timed for latency to find the hidden sunflower seeds. A Student t-test for unpaired data was used for statistical comparisons.

male golden hamsters = test: resident/intruder paradigm of offensive aggression; type: in vivo, hamster; conditions: 3 ng ICV, after the seed finding assay
Text: Agonistic behavior can be classified as either offensive or defensive aggression (Blanchard and Blanchard, 1977; Adams, […]; Albert and Walsh, 1984). Offensive aggression is characterized by an aggressor initiating an attack on an opponent; while, defensive aggression lacks active approach. Both types of aggression have their own unique neurobehavioral systems. The stimuli that elicit offensive and defense attack are different, as are the sequences of behaviors that accompany each agonistic response. […] Offensive aggression is easily studied using male golden hamsters tested in a resident/intruder paradigm, an established model of offensive aggression (Ferris and Potegal 1988) in the context of defending the home burrow. Placing an unfamiliar male hamster into the home cage of another male hamster elicits a well-defined sequence of agonistic behaviors from the resident that includes offensive aggression.
Hamsters are nocturnal and as such all behavioral tests were performed during the first four hrs of the dark phase under dim red illumination. The resident was scored for offensive aggression, e.g., latency to bite the intruder, the total number of bites, total contact time with the intruder and flank marking over a 10 min test period (Ferris and Potegal, 1988). Flank marking is a form of olfactory communication in which a hamsters arches its back and rubs pheromone producing flank glands against objects in the environment (Johnston, 1986).
Five male golden hamsters (130-140 g) were given IP injections of CLAV (200 μg/kg) and saline vehicle in a volume of ca. 0.2 ml. […] Vehicle and CLAV treatments were counter balanced and randomized so all five animals received each treatment separated by at least 48 hrs. Animals were tested 90 min after treatment over a 10 min observation period. Latencies and contact time were analyzed with a two-way ANOVA. Non-parametric data, i.e., number of bites and flank marks were analyzed by Wilcoxon matched-pairs signed-ranks test.
The animals tested in this study were those used in Section IX. After the seed finding assay, beta-NAAG (n=6) and saline vehicle (n=6) treated animals remained in their home cage and were presented with a smaller, male intruder. The resident was scored for latency to bite, bites, contact time and flank marking over a 10 min observation period. Latency to bite and contact time between treatments were compared with Student t-tests. Non-parametric measures of bites and flank marks for beta-NAAG vs vehicle were compared with Mann-Whitney.

[3] = in vivo; cited from earlier work
male Wistar rats = conditions: 10-25 mg/kg, literature; cited from earlier work

## Ala-D-γ-Glu-Lys-D-alanyl-D-alanine
[1]
  behavioral characteristics compared with β-lactam compounds: produced the same modified behavioral characteristics

## CC(=O)N[C@@H](CC(=O)N[C@@H](CCC(=O)O)C(=O)O)C(=O)O [beta-NAAG, N-acetyl-beta-aspartyl-glutamic acid]
[2]; 3 ng in 1 μl ICV, one hr
  difference in latency to find the seeds vs saline vehicle: significantly (p<0.001) different
Male golden hamsters
  measures of offensive aggression (latency to bite, bites, contact time, flank marking) vs vehicle: no significant differences
[3]
  passage of the blood-brain barrier: does not readily cross the blood-brain barrier

## CNC1=Nc2ccc(Cl)cc2C(c2ccccc2)=[N+]([O-])C1 [CDP, Chlordiazepoxide]
[2]; benzodiazepine anxiolytic, dose not given
  seed finding time: less than 10 sec
Male Wistar rats
  motor activity: depresses motor activity
